The values that follow come from patent US12564188B2, “Hydrogel beads for controlled uptake and release of cryoprotective agents” (The General Hospital Corporation, priority 2020, dated 2026).

One data set concerns patients. The note with it: cited from earlier work.
A short description of data set [1]: DMSO release from hydrogel beads into saline, osmolality by micro-osmometer. The data set is classed as physicochemical. The note with it: room temperature, 5.0 μL beads incubated in 15% DMSO. Here is the method:
Here, beads 1-5 mm in diameter were synthesized using microfluidic droplet generation and 2% polyacrylamide/bis-acrylamide, following standard oil emulsion methods^43, and beads were synthesized using calcium alginate. Uniform calcium-alginate hydrogel beads were synthesized by dripping 5% alginate from a needle with a surrounding nitrogen gas sheath into a CaCl2 bath. Bead size and uniformity was confirmed by imaging. 5.0 μL beads were incubated for four hours in a 15% DMSO solution, then strained, blotted, and weighed. Beads were then suspended in saline for several minutes under gentle mixing, and the rate of DMSO release was measured over time by sampling the solution and measuring osmolality by micro-osmometer. The rate of release was compared with numerical simulations of diffusion based on the average bead size (FIG. 3). The diffusion coefficient of DMSO within the gel was measured to be 1.0×10^−5 cm^2s^−1 at room temperature, matching expected values^41,42.
Expected outcomes and alternative approaches: The key metric of success is the ability to reliably add and then remove CPA from a given sample solution at tunable rates which are predicted by modeling. Bead geometry alone is sufficient to achieve gradual CPA uptake and release. The sample recovery was about 96% without any dilution in these experiments.

Setting [2] is: DMSO implicated, co-injection with CAR T cells.

Where two headings read alike, the source gives them in different places.

`C[S+](C)[O-]` [DMSO, dimethyl sulfoxide]: in the data set on patients (setting [2]), the aphasia is 18%, the delirium is on record as 29%, the encephalopathy is 34% and the tremors is 29%. The “patients experiencing nausea and vomiting” value in the data set with patients (co-injection of 10-20 mL DMSO along with CAR T cells) is recorded as 40-60%. The “patients experiencing nausea and vomiting” value with patients (co-injection of approximately 10 mL DMSO along with thawed CAR T cell product) is listed as “up to 60%”. For the same compound, the “diffusion coefficient of DMSO within the gel” value in data set [1] is listed as 1.0×10^−5 cm^2s^−1.
